Measurements taken from US20200069775A1, “BRAIN OSTEOCALCIN RECEPTOR AND COGNITIVE DISORDERS” (The Trustees of Columbia University in the City of New York, priority 2017, published 2020).

Experiments:
[1] = test system: 12 and 16 month-old WT mice; assay: Peripheral osteocalcin delivery by mini-pumps in aging WT mice, DLT, EPMT, MWMT, NOR; format: in vivo, mouse; conditions: 30 or 90 ng/h peripherally via mini-pumps for 60 days
Experimental: For plasma injection experiments, 100 μl of plasma were injected 8 times during 24 days, via tail vein. Each group described is represented individually in each panel. For osteocalcin delivery in WT mice, pumps (Alzet micro-osmotic pump, Model 1002) delivering osteocalcin (30 ng/hr for 12 month-old and 90 ng/hr for 16 month-old mice), or vehicle, were surgically installed subcutaneously in the back of mice. For alendronate delivery to 3 month-old mice, intraperitoneal injections (40 μg/kg) were performed twice a week for 6 weeks. During the last 4 weeks of treatment and during behavioral testing, half of the alendronate-treated mice received 60 ng/hr osteocalcin by osmotic pump. […]
Elevated plus maze test (EPMT): This test takes advantage of the aversion of rodents to open spaces. […] The total number of arm entries and time spent in open arms is recorded. […]
Light to dark transition test: This test is based on the innate aversion of rodents to brightly illuminated areas and on their spontaneous exploratory behavior in response to the stressor that light represents. […] Mice were tested for 6 min and […] were recorded: (i) latency to enter the lit compartment, (ii) time spent in this compartment, an index of the anxiety-related behavior and (iii) number of transitions between compartments, an index of anxiety-related behavior as well as exploratory activity. […]

[2] = test system: Tph2, Th, Gad1 expression in brainstem and midbrain explants; assay: Gene expression (qPCR) in brainstem and midbrain explants; format: cell-based, mouse
Experimental: For gene expression studies, RNA was isolated from primary neurons or tissue using TRIZOL® (Invitrogen). cDNA synthesis was performed following a standard protocol from Invitrogen and qPCR analyses were done using specific quantitative PCR primers from SABiosciences (http://www.sabiosciences.com/RT2PCR.php).
Brains were dissected and incubated for 30 minutes in ice cold oxygenated artificial cerebrospinal fluid (ACSF). Brains were then sliced at 500 μm at the midbrain, −1.55 to −2.35 mm from the bregma, and at the level of the brainstem, from −4.04 to −4.48 mm and from −4.60 to −5.20 mm from the bregma, to include the median and dorsal raphe, respectively. These slices were incubated in ACSF for 1 h, constantly oxygenated (95% O2 and 5% CO2) […], after which they were treated with either osteocalcin (10 ng/ml) or PBS for four hours. Expression of Tph2, TH, GAD 1, GAD2, and Ddc was measured by qPCR.
To determine if osteocalcin acts directly on neurons to modulate neurotransmitter synthesis, several types of assays were performed. First, brainstem and midbrain explants from WT and Gprc6a^−/− mice were generated. Brains were sliced (500 μm) at the level of the median and dorsal raphe of the brainstem (from −4.04 to −4.48 mm and from −4.60 to −5.20 mm, respectively), so that they would be enriched in serotonin-producing neurons, as well as at the level of substantia nigrae and ventral tegmental areas (VTA) of the midbrain (from −1.55 to −2.35 mm and from −2.55 to −3.25 mm, respectively). Enrichment in serotoninergic and catecholaminergic neurons in these explants was verified by their high Tph2 and Th expression. While leptin, used here as a positive control, reduced, as it should, Tph2 expression in WT or Gprc6a^−/− brainstem explants, osteocalcin ([…]) increased expression of this gene 2.5 fold in both WT and Gprc6a^−/− explants. (FIG. 3D). […] Third, to further confirm that osteocalcin signals in neurons of the hindbrain, calcium flux in MPHN treated with undercarboxylated or carboxylated osteocalcin (FIG. 3F) was measured.

WT 2-month old mice = assay: ICV delivery in WT adult mice, D/LT and EPMT; format: in vivo, mouse; conditions: ICV 3 or 10 ng/hour, one month
Experimental: Each mouse was allowed to explore the apparatus for 5 min. Global activity was assessed by measuring the number of entries […] (David et al, 2009, Neuron 62:479-493). Anxiety was assessed by comparing the time spent in the open arms.
The test was performed in a quiet, darkened room. Mice were individually housed in cages containing a handful of bedding from their home cage and acclimated to the room at least 1 h before the test. Naive mice were placed individually in the testing chamber in the dark compartment. The test was 5 min in duration, and time spent and number of entries in light compartments were recorded a highly trained observer, blind to the genotype of the mice.
To determine if osteocalcin is sufficient to improve cognitive function in adult mice, WT 2-month old mice were implanted with ICV pumps delivering vehicle (PBS), or 3, 10, or 30 ng/hr recombinant uncarboxylated full-length mouse osteocalcin for a period of one month. After one month of infusion, animals were subjected to behavioral testing.

osteocalcin: Recombinant osteocalcin bacterially produced, cleaved from the GST subunit; completely undercarboxylated at all three sites; full-length mouse osteocalcin (YLGASVPSPDPLEPTREQCELNPACDELSDQYGLKTAYKRIYGITI)
memory (MWMT and NOR) ([1]; 12- and 16-month-old WT mice): memory was significantly improved
exploratory and anxiety-like behavior (DLT or EPMT) ([1]; 12 and 16 month-old WT mice): better exploratory behavior and decreased anxiety-like behavior
Gad1 expression ([2]; WT and Gprc6a−/− hindbrain explants): decreased Gad1 expression
Th expression ([2]; midbrain explants): increased Th expression
increase of Tph2 expression ([2]; osteocalcin 3 ng/ml, WT and Gprc6a−/− brainstem explants): 2.5 fold
anxiety-like behavior (D/LT and EPMT) (WT 2-month old mice): decrease in anxiety-like behavior
exploration of the lit compartment and open arms (D/LT, EPM) (WT 2-month old mice): increase in the exploration of the lit compartment and open arms
